Results on two compounds are retold here after patent publication US11680297B2, “Activities of multiple cancer-related pathways are associated with BRAF mutation and predict the resistance to BRAF/MEK inhibitors in melanoma cells” (THE JOHNS HOPKINS UNIVERSITY, priority 2013, dated 2023).

Where only a bound is given, the exact number is not on record here.

For assay [1], the system named is PLX4032-resistant melanoma cell lines. The conditions noted are these: two PLX4032-resistant melanoma cell lines; cited from earlier work.
Assay [2] has as its system RPMI-7951 cells. Description: Cell proliferation (MTT) assay. It counts as cell-based. To be noted: Homo sapiens, RPMI-7951, 72 h treatment. The procedure: (§1) After 72 h treatments, cell culture was added with 10 μl of 5 mg/ml MTT agent (3-(4,5-Dimethylthiazol-2-yl)-2,5-diphenyltetrazolium bromide, Sigma St. Louis, Mo.) and incubated for 4 h, followed by addition of 100 μl of 10% SDS solution and a further incubation overnight. The plates were then read on a microplate reader using the test wavelength of 570 nm and the reference wavelength of 670 nm. Five duplicates were done to determine each data point. GI50 was calculated as previously reported (21).

Assay [3] concerns SK-MEL-24 cells. The experiment in a line: Cell proliferation (MTT) assay. The class given is cell-based. The conditions noted are these: Homo sapiens, SK-MEL-24, 72 h treatment. The method, then:
as §1

`CS(=O)(=O)CCNCc1ccc(-c2ccc3ncnc(Nc4ccc(OCc5cccc(F)c5)c(Cl)c4)c3c2)o1` [Lapatinib]: the “effect in combination with PLX4032” value in assay [1] is reported as “apparently synergistic effects”.
As a reminder, the GI50 is the concentration at which growth is held to half of that of the control. The low end stands for more potent growth inhibition, the high end for less potent growth inhibition. `Cn1cnc2c(F)c(Nc3ccc(Br)cc3Cl)c(C(=O)NOCCO)cc21` [AZD6244, selumetinib]: the GI50 in assay [2] and in assay [3] was over 1000 nM throughout.
